Measurements published in PubChem BioAssay AID1963450 (Molecular Pharmacology Branch, DTP, NCI, 2024).
One block for each compound: values may come before it.

Test system: 556581-035-R-J1-PDC complex spheroid growth
Test: Anticancer human tumor 556581-035-R-J1-PDC patient-derived ovarian carcinoma cell line growth inhibition [Asc]
Conditions: for IC50: curve of first compound; for viability, T/C: stronger effect = lower value
In short: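 Stromal components (HUVEC and hMSC) are co-assembled with the cancer cells into multicellular spheroids. Drugs are then added singly or paired, at concentrations falling by half-log increments from a clinically achievable maximum, capped at 10 microM without known Cmax.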
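Also: spheroids exposed to agents for 7 days before viability read.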

IC50 (second compound 0.1 µM): > 100 nM | IC50 (second compound 0.316 µM): > 100 nM | IC50 (second compound 1 µM): > 100 nM | IC50 (second compound 3.16 µM): > 100 nM | IC50 (second compound 10 µM): > 100 nM
Compound: NC1CCC(NC2CC2c2ccccc2)CC1 (stereo not given) + Cc1c(S(C)(=O)=O)c(-c2cc(F)cc(N3CCN(c4ccc(NS(=O)(=O)c5ccc(NC(CCN6CCC(C(=O)OCCCP(=O)(O)O)CC6)CSc6ccccc6)c(S(=O)(=O)C(F)(F)F)c5)cc4)CC3)c2)c(-c2ccc(Cl)cc2)n1C(C)C
viability, T/C (second compound 0.1 µM, first compound 0.000316 µM): 74.9% | viability, T/C (second compound 0.1 µM, first compound 0.001 µM): 90.3% | viability, T/C (second compound 0.1 µM, first compound 0.00316 µM): 64.5% | viability, T/C (second compound 0.1 µM, first compound 0.01 µM): 77.2% | viability, T/C (second compound 0.1 µM, first compound 0.0316 µM): 75.6% | viability, T/C (second compound 0.1 µM, first compound 0.1 µM): 76.9% | viability, T/C (second compound 0.316 µM, first compound 0.000316 µM): 74% | viability, T/C (second compound 0.316 µM, first compound 0.001 µM): 83.3% | viability, T/C (second compound 0.316 µM, first compound 0.00316 µM): 67.2% | viability, T/C (second compound 0.316 µM, first compound 0.01 µM): 82.5% | viability, T/C (second compound 0.316 µM, first compound 0.0316 µM): 80.5% | viability, T/C (second compound 0.316 µM, first compound 0.1 µM): 75.5% | viability, T/C (second compound 1 µM, first compound 0.000316 µM): 62.9% | viability, T/C (second compound 1 µM, first compound 0.001 µM): 64% | viability, T/C (second compound 1 µM, first compound 0.00316 µM): 67.8% | viability, T/C (second compound 1 µM, first compound 0.01 µM): 64.8% | viability, T/C (second compound 1 µM, first compound 0.0316 µM): 62.4% | viability, T/C (second compound 1 µM, first compound 0.1 µM): 56.4% | viability, T/C (second compound 3.16 µM, first compound 0.000316 µM): 58.8% | viability, T/C (second compound 3.16 µM, first compound 0.001 µM): 73.7% | viability, T/C (second compound 3.16 µM, first compound 0.00316 µM): 64.5% | viability, T/C (second compound 3.16 µM, first compound 0.01 µM): 54.4% | viability, T/C (second compound 3.16 µM, first compound 0.0316 µM): 71.9% | viability, T/C (second compound 3.16 µM, first compound 0.1 µM): 58.2% | viability, T/C (second compound 10 µM, first compound 0.000316 µM): 61.5% | viability, T/C (second compound 10 µM, first compound 0.001 µM): 57.2% | viability, T/C (second compound 10 µM, first compound 0.00316 µM): 56.8% | viability, T/C (second compound 10 µM, first compound 0.01 µM): 50.1% | viability, T/C (second compound 10 µM, first compound 0.0316 µM): 69.5% | viability, T/C (second compound 10 µM, first compound 0.1 µM): 63.4%

IC50 (second compound 0.03 µM): > 10000 nM | IC50 (second compound 0.0949 µM): > 10000 nM | IC50 (second compound 0.3 µM): > 10000 nM | IC50 (second compound 0.949 µM): > 10000 nM | IC50 (second compound 3 µM): > 10000 nM
Compound: O=C(c1cc(Cc2n[nH]c(=O)c3ccccc23)ccc1F)N1CCN(C(=O)C2CC2)CC1 + CCN1C(C(=O)NC23CCC(C(=O)O)(CC2)CC3)C(c2cccc(Cl)c2F)C2(C(=O)Nc3cc(Cl)ccc32)C12CCCCC2
viability, T/C (second compound 0.03 µM, first compound 0.0316 µM): 105% | viability, T/C (second compound 0.03 µM, first compound 0.1 µM): 98% | viability, T/C (second compound 0.03 µM, first compound 0.316 µM): 85.5% | viability, T/C (second compound 0.03 µM, first compound 1 µM): 89.9% | viability, T/C (second compound 0.03 µM, first compound 3.16 µM): 86.7% | viability, T/C (second compound 0.03 µM, first compound 10 µM): 70.6% | viability, T/C (second compound 0.0949 µM, first compound 0.0316 µM): 106% | viability, T/C (second compound 0.0949 µM, first compound 0.1 µM): 96.2% | viability, T/C (second compound 0.0949 µM, first compound 0.316 µM): 94% | viability, T/C (second compound 0.0949 µM, first compound 1 µM): 93.7% | viability, T/C (second compound 0.0949 µM, first compound 3.16 µM): 87.9% | viability, T/C (second compound 0.0949 µM, first compound 10 µM): 77% | viability, T/C (second compound 0.3 µM, first compound 0.0316 µM): 104% | viability, T/C (second compound 0.3 µM, first compound 0.1 µM): 97.2% | viability, T/C (second compound 0.3 µM, first compound 0.316 µM): 99.2% | viability, T/C (second compound 0.3 µM, first compound 1 µM): 97.1% | viability, T/C (second compound 0.3 µM, first compound 3.16 µM): 73.3% | viability, T/C (second compound 0.3 µM, first compound 10 µM): 79.2% | viability, T/C (second compound 0.949 µM, first compound 0.0316 µM): 89.9% | viability, T/C (second compound 0.949 µM, first compound 0.1 µM): 92.6% | viability, T/C (second compound 0.949 µM, first compound 0.316 µM): 103% | viability, T/C (second compound 0.949 µM, first compound 1 µM): 86.1% | viability, T/C (second compound 0.949 µM, first compound 3.16 µM): 79.3% | viability, T/C (second compound 0.949 µM, first compound 10 µM): 83.6% | viability, T/C (second compound 3 µM, first compound 0.0316 µM): 97.5% | viability, T/C (second compound 3 µM, first compound 0.1 µM): 81.8% | viability, T/C (second compound 3 µM, first compound 0.316 µM): 87.5% | viability, T/C (second compound 3 µM, first compound 1 µM): 86.8% | viability, T/C (second compound 3 µM, first compound 3.16 µM): 84.8% | viability, T/C (second compound 3 µM, first compound 10 µM): 65.9%

IC50 (second compound 0.1 µM): 544 nM | IC50 (second compound 0.316 µM): 389 nM | IC50 (second compound 1 µM): 266 nM | IC50 (second compound 3.16 µM): 97 nM | IC50 (second compound 10 µM): 14.1 nM
Compound: Cc1nc(N2CCC3(CC2)COC(C)C3N)c(CO)nc1Sc1ccnc(N)c1Cl (stereo not given) + Cc1c(S(C)(=O)=O)c(-c2cc(F)cc(N3CCN(c4ccc(NS(=O)(=O)c5ccc(NC(CCN6CCC(C(=O)OCCCP(=O)(O)O)CC6)CSc6ccccc6)c(S(=O)(=O)C(F)(F)F)c5)cc4)CC3)c2)c(-c2ccc(Cl)cc2)n1C(C)C
viability, T/C (second compound 0.1 µM, first compound 0.00949 µM): 81.7% | viability, T/C (second compound 0.1 µM, first compound 0.03 µM): 90.2% | viability, T/C (second compound 0.1 µM, first compound 0.0949 µM): 62.4% | viability, T/C (second compound 0.1 µM, first compound 0.3 µM): 57.5% | viability, T/C (second compound 0.1 µM, first compound 0.949 µM): 47% | viability, T/C (second compound 0.1 µM, first compound 3 µM): 36.2% | viability, T/C (second compound 0.316 µM, first compound 0.00949 µM): 72.5% | viability, T/C (second compound 0.316 µM, first compound 0.03 µM): 64.4% | viability, T/C (second compound 0.316 µM, first compound 0.0949 µM): 54.9% | viability, T/C (second compound 0.316 µM, first compound 0.3 µM): 53.8% | viability, T/C (second compound 0.316 µM, first compound 0.949 µM): 47.6% | viability, T/C (second compound 0.316 µM, first compound 3 µM): 32.8% | viability, T/C (second compound 1 µM, first compound 0.00949 µM): 62% | viability, T/C (second compound 1 µM, first compound 0.03 µM): 63.8% | viability, T/C (second compound 1 µM, first compound 0.0949 µM): 59.5% | viability, T/C (second compound 1 µM, first compound 0.3 µM): 49.1% | viability, T/C (second compound 1 µM, first compound 0.949 µM): 31.2% | viability, T/C (second compound 1 µM, first compound 3 µM): 30.6% | viability, T/C (second compound 3.16 µM, first compound 0.00949 µM): 55.5% | viability, T/C (second compound 3.16 µM, first compound 0.03 µM): 60.5% | viability, T/C (second compound 3.16 µM, first compound 0.0949 µM): 50.3% | viability, T/C (second compound 3.16 µM, first compound 0.3 µM): 35.7% | viability, T/C (second compound 3.16 µM, first compound 0.949 µM): 39.9% | viability, T/C (second compound 3.16 µM, first compound 3 µM): 29.8% | viability, T/C (second compound 10 µM, first compound 0.00949 µM): 50.8% | viability, T/C (second compound 10 µM, first compound 0.03 µM): 48.7% | viability, T/C (second compound 10 µM, first compound 0.0949 µM): 43.7% | viability, T/C (second compound 10 µM, first compound 0.3 µM): 30.7% | viability, T/C (second compound 10 µM, first compound 0.949 µM): 37.4% | viability, T/C (second compound 10 µM, first compound 3 µM): 22.3%
